Measurements from patent US4792563A, “Insecticidal ethers” (Imperial Chemical Industries PLC, priority 1986, dated 1988).

What was measured:
Format in all cases: in vivo
[1] = tested on: Nephotettix cincticeps (green leaf hopper - nymphs); assay: insecticidal mortality test, contact, rice plant; details: 72 h, 3 days, read-out: grading of mortality, NC
Description: (§1) The activity of the Product was determined using variety of insect pests. The Product was used in the form of liquid preparations containing 500 , 100 or 10 parts per million (ppm) by weight of the Product. The preparations were made by dissolving the Product in acetone and diluting the solutions with water containing b 0.01% by weight of a wetting agent sold under the trade name "LISSAPOL" NX until the liquid preparations contained the required concentration of the Product. "Lissapol" is a Registered Trade Mark.
(§2) The test procedure adopted with regard to each pest was basically the same and comprised supporting a number of the pests on a medium which was usually a host plant or a foodstuff on which the pests feed, and treating either or both the pests and the medium with the preparations. The mortality of the pests was then assessed at peroods usually varying from one to three days after the treatment.
(§3) The results of the tests are given in Table IV for each of the Products, at the rate in parts per million given in the second column, as a grading of mortality designated as A, B or C wherein A indicates 80-100% mortality or knockdown, B indicates 50-79% mortality or knockdown and C indicates less than 50% mortality or knockdown.
(§4) In Table IV the pest organism used is designated by a letter code and the pest species, the support medium or food, and the type and duration of test is given in Table III.
NC Nephotettix cincticeps

[2] = tested on: Musca domestica (houseflies - adults); assay: knockdown test, cotton wool/sugar; details: 4 hours, read-out: grading of knockdown, MD/KD
Description: as §1, §2
In the case of the species Musca domestica (housefly), additional tests to determine the knockdown effect of the compounds were performed.
as §3, §4

[3] = tested on: Blattella germanica (cockroach nymphs); assay: insecticidal mortality test, residual, plastic pot; details: 72 h, 3 days, read-out: grading of mortality, BG
Description: as §1, §2, §3, §4

[4] = tested on: Diabrotica balteata (rootworm larvae); assay: insecticidal mortality test, residual, filter paper/maize seed; details: 72 h, 3 days, read-out: grading of mortality, DB
Description: as §1, §2, §3, §4

[5] = tested on: Musca domestica (houseflies - adults); assay: insecticidal mortality test, contact, cotton wool/sugar; details: 24 h, 1 day, read-out: grading of mortality, MD
Description: as §1, §2, §3, §4

[6] = tested on: Tetranychus urticae (spider mites - adult); assay: insecticidal mortality test, contact, French bean leaf; details: 72 h, 3 days, read-out: grading of mortality, TU
Description: as §1, §2, §3, §4

[7] = tested on: Spodoptera exigua (lesser army worm - larvae); assay: insecticidal mortality test, residual, cotton leaf; details: 72 h, 3 days, read-out: grading of mortality, SP
Description: as §1, §2, §3, §4
(lesser army worm - larvae)

[8] = tested on: Heliothis virescens (tobacco budworm - larvae); assay: whole plant or invertebrate; details: in Gossypium hirsutum, 72 h, read-out: grading of mortality, HV
Description: as §1, §2, §3, §4
(tobacco budworm - larvae)

Myzus persicae (aphids) = assay: insecticidal mortality test, contact, Chinese cabbage leaf; details: 72 h, 3 days, read-out: grading of mortality, MP
Description: as §1, §2, §3, §4

[9] = tested on: Niloparvata lugens (brown plant hopper - nymphs); assay: insecticidal mortality test, contact, rice plant; details: 72 h, 3 days, read-out: grading of mortality, NL
Description: as §1, §2
as §3, with “knockdown. […]” for “knockdown.”

**Q.** How did the mortality at 500 ppm [1] turn out when `CC(C)(CF)COCc1cccc(Oc2ccccc2)c1` [Compound 8, 1-fluoro-2,2-dimethyl-3-(3-phenoxybenzyloxy)propane] was run?
**A.** 80 to 100%

**Q.** And the pest or weed control at 500 ppm [2]?
**A.** < 50%

**Q.** What about the mortality at 500 ppm [3] of the same molecule?
**A.** < 50%

**Q.** And the mortality at 500 ppm [4]?
**A.** 80 to 100%

**Q.** And the mortality at 500 ppm [5]?
**A.** 50 to 79%

**Q.** And the mortality at 500 ppm [6]?
**A.** < 50%

**Q.** What about the mortality at 500 ppm [7] of the same molecule?
**A.** 80 to 100%

**Q.** What about the mortality at 500 ppm [8] of the same molecule?
**A.** 50 to 79%

**Q.** And the mortality at 500 ppm (Myzus persicae (aphids))?
**A.** < 50%

**Q.** With `CC(C)(COCc1cccc(Oc2ccccc2)c1)C(F)F` [Compound 2, 1,1-Difluoro-2,2-dimethyl-3-(3-phenoxybenzyloxy)propane] as the molecule, how does the mortality at 500 ppm [1] read?
**A.** 80 to 100%

**Q.** What about the pest or weed control at 500 ppm [2] of the same molecule?
**A.** 80 to 100%

**Q.** And the mortality at 500 ppm [3]?
**A.** 80 to 100%

**Q.** What about the mortality at 500 ppm [4] of the same molecule?
**A.** 80 to 100%

**Q.** And the mortality at 500 ppm [5]?
**A.** 80 to 100%

**Q.** What about the mortality at 500 ppm [6] of the same molecule?
**A.** < 50%

**Q.** And the mortality at 500 ppm [7]?
**A.** < 50%

**Q.** And the mortality at 500 ppm [8]?
**A.** < 50%

**Q.** What about the mortality at 500 ppm (Myzus persicae (aphids)) of the same molecule?
**A.** < 50%

**Q.** With `CC(C)(COCc1cccc(Oc2ccccc2)n1)C(F)F` [Compound 5, 1,1-Difluoro-2,2-dimethyl-3-[(6-phenoxypyrid-2-yl)methyloxy]propane] as the molecule, how does the pest or weed control at 500 ppm [2] read?
**A.** 80 to 100%

**Q.** What about the mortality at 500 ppm [3] of the same molecule?
**A.** 80 to 100%

**Q.** What about the mortality at 500 ppm [4] of the same molecule?
**A.** 80 to 100%

**Q.** What about the mortality at 500 ppm [5] of the same molecule?
**A.** 80 to 100%

**Q.** What about the mortality at 500 ppm [9] of the same molecule?
**A.** 80 to 100%

**Q.** What about the mortality at 500 ppm [6] of the same molecule?
**A.** 80 to 100%

**Q.** What about the mortality at 500 ppm [7] of the same molecule?
**A.** 80 to 100%

**Q.** What about the mortality at 500 ppm [8] of the same molecule?
**A.** < 50%

**Q.** What about the mortality at 500 ppm (Myzus persicae (aphids)) of the same molecule?
**A.** 50 to 79%

**Q.** Which results are given for `CC(C)(COCc1ccc(F)c(Nc2ccccc2)c1)C(F)F` [Compound 6, 1,1-Difluoro-2,2-dimethyl-3-(3-phenylamino-4-fluorobenzyloxy)propane]?
**A.** mortality at 500 ppm [1]: 80 to 100%; pest or weed control at 500 ppm [2]: 50 to 79%; mortality at 500 ppm [4]: 80 to 100%; mortality at 500 ppm [5]: < 50%; mortality at 500 ppm [6]: 80 to 100%; mortality at 500 ppm [7]: 80 to 100%; mortality at 500 ppm [8]: 80 to 100%; mortality at 500 ppm (Myzus persicae (aphids)): 80 to 100%

**Q.** Which results are given for `CCC(C)(COCc1cccc(Oc2ccccc2)c1)C(F)F` (racemic) [Compound 3, (RS)-1,1-Difluoro-2-ethyl-2-methyl-3(3-phenoxybenzyloxy)propane]?
**A.** mortality at 500 ppm [1]: < 50%; pest or weed control at 500 ppm [2]: 50 to 79%; mortality at 500 ppm [3]: < 50%; mortality at 500 ppm [4]: 80 to 100%; mortality at 500 ppm [5]: 50 to 79%; mortality at 500 ppm [6]: < 50%; mortality at 500 ppm [7]: 80 to 100%; mortality at 500 ppm [8]: < 50%; mortality at 500 ppm (Myzus persicae (aphids)): < 50%

**Q.** Which pest or weed control at 500 ppm [2] does the source give for `CC(C)(COCc1ccc(F)c(Oc2ccccc2)c1)C(F)F` [Compound 1, 1,1-difluoro-2,2-dimethyl-3-(4-fluoro-3-phenoxybenzyloxy)propane] here?
**A.** 80 to 100%

**Q.** And the mortality at 500 ppm [3]?
**A.** 80 to 100%

**Q.** What about the mortality at 500 ppm [4] of the same molecule?
**A.** 80 to 100%

**Q.** And the mortality at 500 ppm [5]?
**A.** 80 to 100%

**Q.** And the mortality at 500 ppm [9]?
**A.** 80 to 100%

**Q.** And the mortality at 500 ppm [6]?
**A.** < 50%

**Q.** What about the mortality at 500 ppm [7] of the same molecule?
**A.** 80 to 100%

**Q.** And the mortality at 500 ppm [8]?
**A.** 80 to 100%

**Q.** What about the mortality at 500 ppm (Myzus persicae (aphids)) of the same molecule?
**A.** < 50%

**Q.** With `CC(C)(COCc1ccc(F)c(Cc2ccccc2)c1)C(F)F` [Compound 4, 1,1-Difluoro-2,2-dimethyl-3-(4-fluoro-3-benzylbenzyloxy)propane] as the molecule, how does the pest or weed control at 500 ppm [2] read?
**A.** < 50%

**Q.** What about the mortality at 500 ppm [3] of the same molecule?
**A.** 50 to 79%

**Q.** What about the mortality at 500 ppm [4] of the same molecule?
**A.** 80 to 100%

**Q.** What about the mortality at 500 ppm [5] of the same molecule?
**A.** 80 to 100%

**Q.** What about the mortality at 500 ppm [6] of the same molecule?
**A.** < 50%

**Q.** And the mortality at 500 ppm [7]?
**A.** 50 to 79%

**Q.** What about the mortality at 500 ppm [8] of the same molecule?
**A.** < 50%

**Q.** What about the mortality at 500 ppm (Myzus persicae (aphids)) of the same molecule?
**A.** < 50%

**Q.** Which results are given for `Fc1ccc(COCC2(C(F)F)CCCC2)cc1Oc1ccccc1` [Compound 21, 1-Difluoromethyl-l-(4-fluoro-3-phenoxybenzyloxymethyl)cyclopentane]?
**A.** mortality at 500 ppm [1]: 80 to 100%; pest or weed control at 500 ppm [2]: < 50%; mortality at 500 ppm [4]: 80 to 100%; mortality at 500 ppm [5]: < 50%; mortality at 500 ppm [6]: < 50%; mortality at 500 ppm [7]: < 50%; mortality at 500 ppm [8]: 50 to 79%; mortality at 500 ppm (Myzus persicae (aphids)): < 50%

**Q.** Which mortality at 500 ppm [1] does the source give for `CC(C)(CF)COCc1ccc(F)c(Oc2ccccc2)c1` [Compound 7, 1-Fluoro-2,2-dimethyl-3-(4-fluoro-3-phenoxybenzyloxy)propane] here?
**A.** 80 to 100%

**Q.** What about the pest or weed control at 500 ppm [2] of the same molecule?
**A.** 80 to 100%

**Q.** And the mortality at 500 ppm [3]?
**A.** 80 to 100%

**Q.** And the mortality at 500 ppm [4]?
**A.** 80 to 100%

**Q.** And the mortality at 500 ppm [5]?
**A.** 80 to 100%

**Q.** What about the mortality at 500 ppm [6] of the same molecule?
**A.** < 50%

**Q.** What about the mortality at 500 ppm [7] of the same molecule?
**A.** 80 to 100%

**Q.** And the mortality at 500 ppm [8]?
**A.** 80 to 100%

**Q.** What about the mortality at 500 ppm (Myzus persicae (aphids)) of the same molecule?
**A.** < 50%
